In patent US20240287074A1, “SALTS AND CRYSTALS” (Kinoxis Therapeutics Pty Ltd, priority 2020, published 2024):
Where a name gives a salt, the structure may show the parent alone. Read-outs that look alike come from different tables or passages of the source.

Columns and labels:
Format in all cases: physicochemical
[1] = Salt disproportionation studies in deionized water; settings: about 24 hours; for salt disproportionation: slurry in deionized water, ambient temperature
Protocol: The following procedure was used during the salt disproportionation studies: • Approximately 20 mg of phosphate form 1 (Example 3) and L-tartrate form 1 (Example 5) were weighed into 2 mL glass vials. • Deionized water was added to each sample in 100 μL aliquots until a mobile slurry was observed. • The slurries were agitated at ambient temperature for about 24 hours. • The slurries were collected and filtered via centrifugation. • The isolated solids were analyzed by XRPD. • The pH of the mother liquors were recorded.

[2] = Thermodynamic solubility in PBS buffer pH 7.4
Protocol: The thermodynamic solubility of freebase (example 1), phosphate form 1 (example 3) and L-tartrate form 1 (example 5) were assessed in phosphate buffered saline (PBS) buffer at pH 7.4 according to the following procedure: • Approximately 30 mg of each form was weighed into 2 mL glass vials. • 100 μL of buffer solution was added to each vial until partial dissolution was observed. • The observed slurries were agitated at ambient temperature for about 24 hours. • The samples were collected, and observations were recorded. • The samples were filtered via centrifugation. • The pH of the mother liquors were recorded. • The concentration of the mother liquors were recorded by HPLC.

[3] = Hydration studies in methanol/water mixtures; settings: MeOH/water mixtures, water activity 0.2, 0.6, 0.8, about 24 hours
Protocol: The following procedure was used during the hydration studies: • Approximately 20 mg of phosphate form 1 (Example 3) and L-tartrate form 1 (Example 5) were weighed into 2 mL glass vials. • Selected methanol/deionized water mixtures (see Table 5) were added to each sample in 100 μL aliquots until a mobile slurry was observed. • The slurries were agitated at ambient temperature for about 24 hours. • The slurries were collected and filtered via centrifugation. • The isolated solids were analyzed by XRPD. • The pH of the mother liquors were recorded.

[4] = Primary salt screen: XRPD pattern after drying and after 40° C./75% RH
Protocol: The following procedure was used: • Approximately 30 mg of 1-methyl-1,4,5,10-tetrahydropyrazolo[3,4-b][1,5]benzodiazepine freebase was weighed into 5×1.5 mL glass vials. • 300 μL of selected solvent system was added to each vial to form a mobile slurry, and a beige slurry was observed. • 1.05 (or 0.525 for the hemi experiments) equivalents of acid counterion (see Table 1) was added to each sample and initial observations were recorded. • The samples were temperature cycled between ambient and 40° C. in 4-hour cycles for about 72 hours. • The samples were collected, and observations made. • Samples in which solids were observed were filtered via centrifugation and the solids were loaded onto a multi-well XRPD plate and analyzed by XRPD. • Samples in which no solids were observed were uncapped and left undisturbed to allow evaporation at ambient temperature.

[5] = Dynamic / gravimetric vapour sorption (DVS/GVS) hygroscopicity; settings: for hygroscopicity: DVS, 25° C.; for DVS mass increase: at 90% RH
Protocol: Approximately, 10-20 mg of sample was placed into a mesh vapour sorption balance pan and loaded into a DVS Intrinsic dynamic vapour sorption balance by Surface Measurement Systems. The sample was subjected to a ramping profile from 40-90% relative humidity (RH) at 10% increments, maintaining the sample at each step until a stable weight had been achieved (dm/dt 0.004%, minimum step length 30 minutes, maximum step length 500 minutes) at 25° C. After completion of the sorption cycle, the sample was dried using the same procedure to 0% RH and then a second sorption cycle back to 40% RH. Two cycles were performed. The weight change during the sorption/desorption cycles were plotted, allowing for the hygroscopic nature of the sample to be determined. XRPD analysis was then carried out on any solid retained.
Approximately 10-20 mg of sample was placed into a mesh vapour sorption balance pan and loaded into an IGASorp Moisture Sorption Analyser balance by Hiden Analytical. The sample was subjected to a ramping profile from 40-90% relative humidity (RH) at 10% increments, maintaining the sample at each step until a stable weight had been achieved (98% step completion, minimum step length 30 minutes, maximum step length 60 minutes) at 25° C. After completion of the sorption cycle, the sample was dried using the same procedure to 0% RH, and finally taken back to the starting point of 40% RH. Two cycles were performed. The weight change during the sorption/desorption cycles were plotted, allowing for the hygroscopic nature of the sample to be determined.

[6] = 1-week stability studies (XRPD, HPLC); settings: 1 week; ambient temperature, light and humidity; 40° C./75% RH; 80° C.
Protocol: The isolated 1-methyl-1,4,5,10-tetrahydropyrazolo[3,4-b][1,5]benzodiazepine freebase was characterized by TG/DTA, DSC, DVS with post-DVS, XRPD, HPLC, ^1H NMR and LC-MS, as per the methods detailed above. The 1-methyl-1,4,5,10-tetrahydropyrazolo[3,4-b][1,5]benzodiazepine freebase was stored at 40° C./75% relative humidity (RH) for 1 week to determine the stability of the material at increased RH and to identify potential hydrate formation.
One-week stability studies were conducted on the freebase (example 1), phosphate form 1 (example 3) and L-tartrate form 1 (example 5) salts using the following procedures: • Approximately 20 mg of each form was weighed into 3×2 mL glass vials. • One vial for each form was stored under the following conditions for 1-week: • 1. Ambient temperature, light and humidity (unsealed vial) • 2. 40° C./75% RH (unsealed vial) • 3. 80° C. (sealed vial) • The samples were collected after 1-week and observations were made. • The solids were analyzed by XRPD and HPLC.

[7] = Solvent solubility screen of phosphate salt; settings: for solubility: read-out: Approx. Solubility
Protocol: Selected solvent was added in 50 μL aliquots to approximately 10 mg of poorly crystalline phosphate pattern (obtained from above lyophilisation). Between each addition, the mixture was checked for dissolution and where no dissolution was apparent, the mixture was heated to about 40° C. and checked again. This procedure was continued until dissolution was observed or until 2 mL of solvent had been added. Samples in which dissolution was observed were stored uncapped at ambient temperature to allow evaporation. Samples in which dissolution was not observed were filtered via centrifugation. All observed solids were analyzed by XRPD. The solvent systems used during the solvent solubility screen are detailed in Table 3.

[8] = Storage of phosphate pattern 2 at 40° C./75% RH; settings: about 16 hours
Protocol: The samples were analyzed by XRPD.

Cn1ncc2c1Nc1ccccc1NC2 [L-tartrate form 1, L-tartaric acid addition salt of 1-methyl-1,4,5,10-tetrahydropyrazolo[3,4-b][1,5]benzodiazepine]
change in XRPD pattern ([1]; material slurried in water): No change in XRPD pattern
salt disproportionation [1]: Salt disproportionation was not observed
salt disproportionation ([1]; listed as L-tartrate): No evidence
solubility ([2]; PBS buffer at pH 7.4, ambient temperature, about 24 hours, HPLC): 6.3 mg/mL
pH (t = 24 h) ([2]; mother liquor of PBS pH 7.4 slurry): 3.36
change in XRPD pattern [3]: No change in XRPD pattern
hydrate formation [3]: Hydrate formation was not observed
hydrate formation ([3]; listed as L-tartrate): No evidence
thermal stability and hygroscopicity ([4]; conclusion of salt screen): acceptable thermal stability and hygroscopicity
Post-Drying (XRPD pattern) ([4]; oven at 40° C. for about 24 hours, listed as Tartrate pattern 1): Pattern 1
Comments (stability) ([4]; salt screen summary): Good
Post 40° C./75% RH (XRPD pattern) ([4]; stability chamber at 40° C./75% RH for about 24 hours, listed as Tartrate pattern 1): Pattern 1
change in form by XRPD post-DVS analysis [5]: No evidence of form changes or hydrate formation
hygroscopicity [5]: slightly hygroscopic
hygroscopicity ([5]; listed as L-tartrate salt): slightly hygroscopic
DVS mass increase [5]: about 0.6%
DVS mass increase ([5]; listed as L-tartrate salt): about 0.6 wt. %
change in form by XRPD post-DVS analysis ([5]; listed as L-tartrate salt): no changes in form
changes in form by XRPD [6]: no changes in form
changes in purity by HPLC [6]: did not identify any significant changes in purity

Cn1ncc2c1Nc1ccccc1NC2 [phosphate pattern 2, phosphoric acid addition salt of 1-methyl-1,4,5,10-tetrahydropyrazolo[3,4-b][1,5]benzodiazepine]
solubility ([7]; 1,4-dioxane, 40 °C, organic solvent or mixture, thermodynamic from solid, 1,4-Dioxane): < 5 mg/mL
solubility ([7]; 2-Butanol, 40 °C, organic solvent or mixture, thermodynamic from solid, 2-Butanol): < 5 mg/mL
solubility ([7]; 2-Ethoxyethanol, 40 °C, organic solvent or mixture, thermodynamic from solid, 2-Ethoxyethanol): < 5 mg/mL
solubility ([7]; 2-methyl tetrahydrofuran, 40 °C, organic solvent or mixture, thermodynamic from solid, 2-Methyl tetrahydrofuran): < 5 mg/mL
solubility ([7]; 2-propanol, 40 °C, organic solvent or mixture, thermodynamic from solid, 2-Propanol): < 5 mg/mL
solubility ([7]; 80% 2-propanol/20% water (% v/v), 40 °C, organic solvent or mixture, thermodynamic from solid, 80% 2-Propanol/20% water (% v/v)): < 5 mg/mL
solubility ([7]; 80% acetone/20% water (% v/v), 40 °C, organic solvent or mixture, thermodynamic from solid, 80% Acetone/20% water (% v/v)): < 5 mg/mL
solubility ([7]; 80% acetonitrile/20% water (% v/v), 40 °C, organic solvent or mixture, thermodynamic from solid, 80% Acetonitrile/20% water (% v/v)): < 5 mg/mL
solubility ([7]; 80% methanol/20% water (% v/v), 40 °C, organic solvent or mixture, thermodynamic from solid, 80% Methanol/20% water (% v/v)): < 5 mg/mL
Approx. Solubility ([7]; N-Methyl pyrrolidone): 17 mg/mL
solubility ([7]; N-methyl pyrrolidone, organic solvent or mixture, thermodynamic from solid, N-Methyl pyrrolidone): 10 to 100 mg/mL
Approx. Solubility ([7]; Water): 17 mg/mL
solubility ([7]; acetone, 40 °C, organic solvent or mixture, thermodynamic from solid, Acetone): < 5 mg/mL
solubility ([7]; acetonitrile, 40 °C, organic solvent or mixture, thermodynamic from solid, Acetonitrile): < 5 mg/mL
solubility ([7]; anisole, 40 °C, organic solvent or mixture, thermodynamic from solid, Anisole): < 5 mg/mL
solubility ([7]; chloroform, 40 °C, organic solvent or mixture, thermodynamic from solid, Chloroform): < 5 mg/mL
solubility ([7]; ethanol, 40 °C, organic solvent or mixture, thermodynamic from solid, Ethanol): < 5 mg/mL
solubility ([7]; ethanol/water Aw 0.4, 40 °C, organic solvent or mixture, thermodynamic from solid, Ethanol/water Aw 0.4): < 5 mg/mL
solubility ([7]; ethanol/water Aw 0.5, 40 °C, organic solvent or mixture, thermodynamic from solid, Ethanol/water Aw 0.5): < 5 mg/mL
solubility ([7]; ethanol/water Aw 0.6, 40 °C, organic solvent or mixture, thermodynamic from solid, Ethanol/water Aw 0.6): < 5 mg/mL
solubility ([7]; ethanol/water Aw 0.7, 40 °C, organic solvent or mixture, thermodynamic from solid, Ethanol/water Aw 0.7): < 5 mg/mL
solubility ([7]; ethanol/water Aw 0.8, 40 °C, organic solvent or mixture, thermodynamic from solid, Ethanol/water Aw 0.8): < 5 mg/mL
solubility ([7]; ethyl acetate, 40 °C, organic solvent or mixture, thermodynamic from solid, Ethyl acetate): < 5 mg/mL
solubility ([7]; ethyl formate, 40 °C, organic solvent or mixture, thermodynamic from solid, Ethyl formate): < 5 mg/mL
solubility ([7]; ethyleneglycol, 40 °C, organic solvent or mixture, thermodynamic from solid, Ethyleneglycol): < 5 mg/mL
solubility ([7]; isopropyl acetate, 40 °C, organic solvent or mixture, thermodynamic from solid, Isopropyl acetate): < 5 mg/mL
solubility ([7]; methanol, 40 °C, organic solvent or mixture, thermodynamic from solid, Methanol): < 5 mg/mL
solubility ([7]; methylethyl ketone, organic solvent or mixture, thermodynamic from solid, Methylethyl ketone): < 5 mg/mL
solubility ([7]; methylisobutyl ketone, organic solvent or mixture, thermodynamic from solid, Methylisobutyl ketone): < 5 mg/mL
solubility ([7]; nitromethane, organic solvent or mixture, thermodynamic from solid, Nitromethane): < 5 mg/mL
solubility ([7]; tert-butylmethyl ether, organic solvent or mixture, thermodynamic from solid, tert-Butylmethyl ether): < 5 mg/mL
solubility ([7]; tetrahydrofuran, organic solvent or mixture, thermodynamic from solid, Tetrahydrofuran): < 5 mg/mL
solubility ([7]; water, thermodynamic from solid, Water): 10 to 100 mg/mL
form by XRPD upon storage at 40° C./75% RH [8]: completely converted to form 1
